This note sets out measurements from US7700832B2 (priority 2006, dated 2010).

Common to all, as to format: cell-based
Assay [1] concerns Fusarium verticillioides (FVE).
In assay [2] the test system is Fusarium graminearum (FGR). The settings on record: for antifungal activity against FGR: polypeptide, standard plate assay, 4,000 spores per mL, ¼× potato dextrose broth, 28° C., 24 to 48 hours, scored with inverted microscope.
Assay [3] deals with Colletotrichum graminicola (CGR). The settings on record: polypeptide, standard plate assay, 4,000 spores per mL, ¼× Czapec-Dox V8, 28° C., 24 to 48 hours, scored with inverted microscope.
The next assay has as its system Diplodia maydis (DMA). The settings on record: polypeptide, standard plate assay, 6,000 spores per mL, ¼× potato dextrose broth, 28° C., 24 to 48 hours, scored with inverted microscope.

Entries after “also recorded” stand apart in the source; their conditions may differ. Like-named read-outs stand apart in the source and are kept apart here.

Turning to “SEQ ID NO:3: mature antifungal polypeptide LB-12922 isolated from Penicillium citreonigrum fermentation broth (LSCYPSCMQNYCSHPRCFLHATCLSYSHCHVCGTRKVCL; PEPTIDE (1)...(39) Predicted mature LB-12922 peptide; listed as Penicillium citreonigrum)”, in assay [1], the “antifungal activity against FVE” value was “display antifungal activity” and the “antifungal activity against FVE (HPLC fraction screen)” value is given as “found to have activity”. For the same substance, the “antifungal activity against FGR” value in assay [2] is on record as “display antifungal activity”. Further, the “antifungal activity against CGR” value in assay [3] was “display antifungal activity”. In the assay with Diplodia maydis (DMA), the “antifungal activity against DMA” value is reported as “display antifungal activity”.

Turning to “SEQ ID NO:1: mature antifungal polypeptide LB-09812, 33 amino acids, from Penicillium glandicola fermentation broth; also expressed in E. coli and HPLC-purified (ALHNSCSHPRCFNHAHCLTYSHCHVCSSRKRCL; PEPTIDE (1)...(33) Predicted mature LB-09812 peptide; listed as Penicillium glandicola)”, the “antifungal activity against FVE” value in assay [1] is given as “exhibited antifungal activity; also recorded: display antifungal activity”. Also, in assay [2] (dried HPLC fractions, 4,000 spores/mL in ¼× potato dextrose broth, 27° C. for 24 hours), the “antifungal activity against FGR (HPLC fraction screen)” value was “found to have activity”. Moreover, the “antifungal activity against FGR” value in assay [2] is “display antifungal activity”; in assay [2] (listed as SEQ ID NO: 1) it was “exhibited antifungal activity”. For the same substance, the “antifungal activity against CGR” value in assay [3] is reported as “display antifungal activity”; in assay [3] (listed as SEQ ID NO: 1) it was “exhibited antifungal activity”. The “antifungal activity against DMA” value in the assay on Diplodia maydis (DMA) is listed as “display antifungal activity”; in the assay with Diplodia maydis (DMA) (listed as SEQ ID NO: 1), “exhibited antifungal activity”.
